Structures can show the parent of a compound that is named as a salt. Where two headings read alike, the source gives them in different places.
Key:
[1] = Drug library screen, cell viability (CellTiter-Glo); assay type: cell-based, human; conditions: human; HCT116 ARID1A-WT; 10 μM for 5 days; relative to cells treated with solvent (DMSO); read-out: Cell viability, WT
How it was run: (§1)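 ARID1A-WT and ARID1A-KO HCT116 cells screened against the library; viability read after 5 days by CellTiter-Glo luminescence, expressed relative to DMSO-treated cells. Hits: KO viability below 40% with WT viability above 80%.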

[2] = tested on: ARID1A-KO HCT116 cells; assay: as above; assay type: cell-based, human; conditions: Homo sapiens, HCT-116, 120 h, read-out: Cell viability, KO
How it was run: as §1

[3] = HCT116 ARID1A-KO, 10 μM for 5 days, relative to cells treated with solvent (DMSO)

| Compound | viability at 5 days, 10 μM [1] [%] | viability at 10 µM [2, 3] [%] | viability [1] [%] | viability at 10 µM [2] [%] |
| --- | --- | --- | --- | --- |
| O=c1cc(-c2ccccc2)oc2cc(O)c(O)c(O)c12 [Baicalein] | 94.6 | 93.7 |  |  |
| NC(=O)c1ccccc1 [Benzamide] | 188 | 134 |  |  |
| CC(C)C[C@H](NC(=O)[C@@H](O)[C@H](N)Cc1ccccc1)C(=O)O [Bestatin] | 68.6 | 66.2 |  |  |
| Cc1c[nH]c(-c2cnc(NCCNc3ccc(C#N)cn3)nc2-c2ccc(Cl)cc2Cl)n1 [CT99021] | 63.8 | 73.5 |  |  |
| CC[C@@]1(O)C(=O)OCc2c1cc1n(c2=O)Cc2cc3ccccc3nc2-1 [Camptothecin] | 2.97 | 4.03 |  |  |
| C[C@@]12C(=O)OC(=O)[C@]1(C)[C@H]1CC[C@@H]2O1 [Cantharidin] |  | 18.2 | 26.2 |  |
| C/C=C/C/C=C/CCC(=O)[C@H]1O[C@H]1C(N)=O [Cerulenin] | 70 | 68.6 |  |  |
| CN1C(=O)[C@]2(Cc3cn([C@]45C[C@@]67SS[C@@](CO)(C(=O)N6[C@H]4Nc4ccccc45)N(C)C7=O)c4ccccc34)SS[C@@]1(CO)C(=O)N2C [Chetomin] |  | 4.69 | 4.21 |  |
| CCOC(=O)C(C)(C)Oc1ccc(Cl)cc1 [Clofibrate] | 110 | 111 |  |  |
| C[C@@H]1C[C@@H]([C@H](O)CC2CC(=O)NC(=O)C2)C(=O)[C@@H](C)C1 [Cycloheximide] |  | 10.1 | 9.33 |  |
| COc1c(C=O)c(O)cc2c1C(=O)c1ccccc1C2=O [Damnacanthal] | 185 | 138 |  |  |
| COc1cccc2c1C(=O)c1c(O)c3c(c(O)c1C2=O)C[C@@](O)(C(C)=O)C[C@@H]3O[C@H]1C[C@H](N)[C@H](O)[C@H](C)O1 [Daunorubicin, HCl] | 5.21 |  |  | 4.45 |
| NC1=N/C(=C2/CCNC(=O)c3[nH]ccc32)C(=O)N1 [Debromohymenialdisine (DBH), Debromohymenialdisine] | 62.9 | 72.2 |  |  |
| Nc1ncn([C@H]2C[C@H](O)[C@@H](CO)O2)c(=O)n1 [Decitabine] | 30.8 | 30.4 |  |  |
| CCCCCCCCCCC1=C(C)C(=O)C(OC)=C(OC)C1=O [Decylubiquinone] | 85.7 | 100 |  |  |
| OC[C@H]1NC[C@H](O)[C@@H](O)[C@@H]1O [Deoxynojirimycin] | 106 | 121 |  |  |
| CN(N=O)c1cc(O)ccc1O [Dephostatin] |  | 60.2 | 90.4 |  |
| Cc1cc(N)c2ccccc2[n+]1CCCCCCCCCC[n+]1c(C)cc(N)c2ccccc21 [Dequalinium] | 6.38 | 5.24 |  |  |
| C[C@@H]1C[C@H]2[C@@H]3CCC4=CC(=O)C=C[C@]4(C)[C@@]3(F)[C@@H](O)C[C@]2(C)[C@@]1(O)C(=O)CO [Dexamethasone] | 212 | 162 |  |  |
| O=c1c2ccccc2[nH]c(=S)n1CCN1CCC(=C(c2ccc(F)cc2)c2ccc(F)cc2)CC1 [Diacylglycerol kinase inhibitor II] | 141 | 171 |  |  |
| CC1=NS(=O)(=O)c2cc(Cl)ccc2N1 [Diazoxide] | 103 | 115 |  |  |

| Compound | viability at 5 days, 10 μM [1] [%] | viability at 10 µM [2, 3] [%] | viability [1] [%] | viability at 10 µM [2] [%] |
| --- | --- | --- | --- | --- |
| COc1ccc([C@@H]2Sc3ccccc3N(CCN(C)C)C(=O)[C@@H]2OC(C)=O)cc1 [Diltiazem] | 102 | 115 |  |  |
| COc1cccc2c1C(=O)c1c(O)c3c(c(O)c1C2=O)C[C@@](O)(C(=O)CO)C[C@@H]3O[C@H]1C[C@H](N)[C@H](O)[C@H](C)O1 [Doxorubicin, HCl] | 4.81 | 4.14 |  |  |
| Cc1cc(Nc2cc(N3CCN(C)CC3)nc(/C=C/c3ccccc3)n2)n[nH]1 [ENMD-2076] | 9.16 | 10.1 |  |  |
| O=c1oc2c(O)c(O)cc3c(=O)oc4c(O)c(O)cc1c4c23 [Ellagic acid] | 127 | 161 |  |  |
| COc1cc([C@@H]2c3cc4c(cc3[C@@H](O[C@@H]3O[C@@H]5CO[C@@H](C)O[C@H]5[C@H](O)[C@H]3O)[C@H]3COC(=O)[C@H]23)OCO4)cc(OC)c1O [Etoposide (VP-16), Etoposide] | 30.6 | 27.4 |  |  |
| C=CC[C@@H]1/C=C(\C)C[C@H](C)C[C@H](OC)[C@H]2O[C@@](O)(C(=O)C(=O)N3CCCC[C@H]3C(=O)O[C@H](/C(C)=C/[C@@H]3CC[C@@H](O)[C@H](OC)C3)[C@H](C)[C@@H](O)CC1=O)[C@H](C)C[C@@H]2OC [FK-506] | 173 | 130 |  |  |
| CC(C)(C)NC(=O)[C@H]1CC[C@H]2[C@@H]3CC[C@H]4NC(=O)C=C[C@]4(C)[C@H]3CC[C@]12C [Finasteride] | 99.6 | 108 |  |  |
| CC(C)C(=O)Nc1ccc([N+](=O)[O-])c(C(F)(F)F)c1 [Flutamide] | 163 | 126 |  |  |
| C[C@]12CCC(=O)C(O)=C1CC[C@@H]1[C@@H]2CC[C@]2(C)C(=O)CC[C@@H]12 [Formestane] |  | 69.5 | 108 |  |
| CO[C@@H]1[C@H](OC(=O)/C=C/C=C/C=C/C=C/C(=O)O)CC[C@]2(CO2)[C@H]1[C@@]1(C)O[C@@H]1CC=C(C)C [Fumagillin] | 96.4 |  |  | 82.2 |
| CNC(=O)[C@H](Cc1c[nH]c2ccccc12)NC(=O)[C@@H](CC(=O)NO)CC(C)C [GM 6001] | 188 | 123 |  |  |
| O=c1c(-c2ccc(O)cc2)coc2cc(O)cc(O)c12 [Genistein] |  | 118 | 173 |  |
| COc1ccc(Cl)cc1C(=O)NCCc1ccc(S(=O)(=O)NC(=O)NC2CCCCC2)cc1 [Glibenclamide] | 108 | 109 |  |  |
| O=S(=O)(c1cccc2cnccc12)N1CCCNCC1 [HA1077] | 155 | 73.8 |  |  |
| NC(=O)NO [Hydroxyurea] | 157 | 117 |  |  |
| C[C@H](CCC(=O)O)C[C@H](C)C[C@H](C)C(=O)/C=C(\O)[C@H](C)C[C@H](C)C/C=C/[C@@H](C)[C@@H](O)[C@@H](C)[C@@H](O)C[C@@H]1CC[C@@](C)([C@H]2CC[C@@](C)([C@@H](C)O)O2)O1 [Ionomycin] |  | 35.9 | 31.8 |  |
| CC1=C2C(=O)[C@H]3[C@@H](CC=C4C[C@@H](O)CC[C@@]43C)[C@@H]2CC[C@]12O[C@@H]1C[C@H](C)CN[C@H]1[C@H]2C [Jervine] |  | 90.1 | 74.4 |  |
| O=C1Cc2c([nH]c3ccc(Br)cc23)-c2ccccc2N1 [Kenpaullone] | 66.2 | 35 |  |  |
| CC(=O)N[C@@H](CSC(=O)[C@]1([C@@H](O)C(C)C)NC(=O)[C@H](C)[C@@H]1O)C(=O)O [Lactacystin] | 32.6 | 26.1 |  |  |
| O=C(O)c1nn(Cc2ccc(Cl)cc2Cl)c2ccccc12 [Lonidamine] | 98.4 | 116 |  |  |
| CC[C@H](C)C(=O)O[C@H]1C[C@@H](C)C=C2C=C[C@H](C)[C@H](CC[C@@H]3C[C@@H](O)CC(=O)O3)[C@H]21 [Lovastatin] | 132 | 85.2 |  |  |
